From patent US20080182908A1, “PHARMACEUTICAL COMPOSITIONS COMPRISING MEMANTINE” (priority 2007, published 2008)
Structures can show the parent of a compound that is named as a salt.

Key:
[1] = tested on: NMDA (N-methyl-D-aspartate) receptor; settings: noncompetitive NMDA receptor antagonist; cited from earlier work
[2] = Physicochemical properties of the active ingredient (density, flow, particle size distribution); settings: active ingredient used in Example 1
Source text: The different physicochemical properties of the active ingredient as well as excipients are to be considered, as these properties affect processing and the formulation properties of the compositions. Various physicochemical properties include, but are not limited to, particle size of the active ingredient, density (including bulk density and tapped density), compressibility index, Hausner's ratio, angle of repose, etc. The percentages of particles with different sizes that exist in a total powder, is the particle size distribution. It is represented in certain ways. Particle size is the maximun dimension of a particle, frequently expressed in micrometers. Particle size distributions can be expressed in terms of D10, D50, D90 and D[4,3]. The D10, D50 and D90 represent the 10th, median or the 50th percentile, and the 90th percentile of the particle size distribution, respectively, as measured by volume. That is, the D10, D50, D90 are values of the distribution such that 10%, 50%, and 90% of the particles have a size of this value or less […]. D50 also known as median diameter of particles. It is one of the important parameters representing characteristics of particle of powder. For a sample, if D50=5 μm, it means that 50% of the particles are smaller than 5 μm. Similarly, if D10=5 μm, 10% of the particles are less than or equal to 5 μm and if D90=5 μm, 90% of the particles have sizes less than or equal to 5 μm. D[4,3] is the volume moment mean of the particles or the volume weighted particle size.

[3] = cited from earlier work

Row | SMILES | Affinity for the receptor [1] | Blocking/unblocking kinetics [1] | Bulk density [2] [g/mL] | Compressibility index [2] | Hauser's ratio [2] | Particle size distribution: D(10) [2] [μm] | Particle size distribution: D(50) [2] [μm] | Particle size distribution: D(90) [2] [μm] | Tapped density [2] [g/mL] | Solubility in water [3]
1 | C[C@]12CC3C[C@](C)(C1)C[C@@](N)(C3)C2 [Memantine, 1-amino-3,5-dimethyladamantane] | low to moderate affinity | rapid blocking/unblocking kinetics |  |  |  |  |  |  |  | 
2 | CC12CC3CC(C)(C1)CC(N)(C3)C2 [memantine hydrochloride] |  |  | 0.317 | 31.83 | 1.467 | 10.744 | 60.545 | 210.482 | 0.465 | highly soluble in water
